# From patent US10131652B2, “Pyrimidinyloxy benzene derivatives as herbicides” (E. I. DU PONT DE NEMOURS AND COMPANY, priority 2014, dated 2018)
# Where two headings read alike, the source gives them in different places.
# Key:
# Assay in all cases: Test B pre-/postemergence plant response
# Type in all cases: in vivo
# [1] = test system: barnyardgrass (Echinochloa crus-galli); details: for Plant response rating, Barnyardgrass: 1000 g ai/ha; for pest or weed control at 125 g/ha: 125 g ai/ha
# Excerpt: (§1) Seeds of plant species selected from bamyardgrass (Echinochloa crus-galli), kochia (Kochia scoparia), ragweed (common ragweed, Ambrosia elatior), Italian ryegrass (Lolium multiflorum), large (Lg) crabgrass (Digitaria sanguinalis), giant foxtail (Setaria faberii), momingglory (Ipomoea spp.), pigweed (Amaranthus retroflexus), velvetleaf (Abutilon theophrasti), wheat (Triticum aestivum), and corn (Zea mays) were planted into a blend of loam soil and sand and treated preemergence with a directed soil spray using test chemicals formulated in a non-phytotoxic solvent mixture which included a surfactant. At the same time, plants selected from these crop and weed species and also blackgrass (Alopecurus myosuroides), and galium (catchweed bedstraw, Galium aparine) were planted in pots containing the same blend of loam soil and sand and treated with postemergence applications of test chemicals formulated in the same manner. Plants ranged in height from 2 to 10 cm and were in the one- to two-leaf stage for the postemergence treatment. Treated plants and untreated controls were maintained in a greenhouse for approximately 10 days, after which time all treated plants were compared to untreated controls and visually evaluated for injury. Plant response ratings, summarized in Table B, are based on a 0 to 100 scale where 0 is no effect and 100 is complete control. A dash (-) response means no test result.
# [2] = test system: corn (Zea mays); details: for Plant response rating, Corn: 1000 g ai/ha; for Corn plant response rating (crop injury, 0 = no effect, 100 = complete kill) at 125 g/ha: 125 g ai/ha
# Excerpt: as §1
# [3] = test system: giant foxtail (Setaria faberii); details: for Plant response rating, Foxtail, Giant: 1000 g ai/ha; for pest or weed control at 125 g/ha: 125 g ai/ha
# Excerpt: as §1
# [4] = test system: large (Lg) crabgrass (Digitaria sanguinalis); details: for Plant response rating, Crabgrass, Large: 1000 g ai/ha; for pest or weed control at 125 g/ha: 125 g ai/ha
# Excerpt: as §1
# [5] = test system: morningglory (Ipomoea spp.); details: for Plant response rating, Morningglory: 1000 g ai/ha; for pest or weed control at 125 g/ha: 125 g ai/ha
# Excerpt: as §1
# [6] = test system: pigweed (Amaranthus retroflexus); details: for Plant response rating, Pigweed: 1000 g ai/ha; for pest or weed control at 125 g/ha: 125 g ai/ha
# Excerpt: as §1
# [7] = test system: velvetleaf (Abutilon theophrasti); details: for Plant response rating, Velvetleaf: 1000 g ai/ha; for pest or weed control at 125 g/ha: 125 g ai/ha
# Excerpt: as §1
# [8] = test system: wheat (Triticum aestivum); details: for Plant response rating, Wheat: 1000 g ai/ha, 0 to 100 scale (0 no effect, 100 complete control); for plant injury at 125 g/ha: 125 g ai/ha
# Excerpt: as §1
# [9] = Postemergence, 0 to 100 scale (0 no effect, 100 complete control)
# [10] = Preemergence, 0 to 100 scale (0 no effect, 100 complete control)
# [11] = Preemergence, 31 g ai/ha, 0 to 100 scale (0 no effect, 100 complete control)
structure (smiles),measurement,setting,value
Clc1cnc(Oc2ccccc2-c2cnco2)nc1 [Compound 7],"Plant response rating, Barnyardgrass",[1]; [9],10
same,"Plant response rating, Barnyardgrass",[1]; [10],10
same,"Plant response rating, Corn",[2]; [9],10
same,"Plant response rating, Corn",[2]; [10],0
same,"Plant response rating, Foxtail, Giant",[3]; [9],20
same,"Plant response rating, Foxtail, Giant",[3]; [10],20
same,"Plant response rating, Crabgrass, Large",[4]; [9],20
same,"Plant response rating, Crabgrass, Large",[4]; [10],40
same,"Plant response rating, Morningglory",[5]; [9],40
same,"Plant response rating, Morningglory",[5]; [10],0
same,"Plant response rating, Pigweed",[6]; [9],20
same,"Plant response rating, Pigweed",[6]; [10],40
same,"Plant response rating, Velvetleaf",[7]; [9],10
same,"Plant response rating, Velvetleaf",[7]; [10],10
same,"Plant response rating, Wheat",[8]; Postemergence,10
same,"Plant response rating, Wheat",[8]; Preemergence,0
Clc1cnc(Oc2ccccc2-c2cscn2)nc1 [Compound 8],"Plant response rating, Barnyardgrass",[1]; [9],0
same,"Plant response rating, Barnyardgrass",[1]; [10],30
same,"Plant response rating, Corn",[2]; [9],0
same,"Plant response rating, Corn",[2]; [10],0
same,"Plant response rating, Foxtail, Giant",[3]; [9],0
same,"Plant response rating, Foxtail, Giant",[3]; [10],60
same,"Plant response rating, Crabgrass, Large",[4]; [9],10
same,"Plant response rating, Crabgrass, Large",[4]; [10],80
same,"Plant response rating, Morningglory",[5]; [9],10
same,"Plant response rating, Morningglory",[5]; [10],0
same,"Plant response rating, Pigweed",[6]; [9],70
same,"Plant response rating, Pigweed",[6]; [10],100
same,"Plant response rating, Velvetleaf",[7]; [9],30
same,"Plant response rating, Velvetleaf",[7]; [10],30
same,"Plant response rating, Wheat",[8]; Postemergence,0
same,"Plant response rating, Wheat",[8]; Preemergence,0
Clc1cnc(Oc2ccccc2-c2cncs2)nc1 [Compound 9],"Plant response rating, Barnyardgrass",[1]; [9],10
same,"Plant response rating, Barnyardgrass",[1]; [10],20
same,"Plant response rating, Corn",[2]; [9],10
same,"Plant response rating, Corn",[2]; [10],0
same,"Plant response rating, Foxtail, Giant",[3]; [9],20
same,"Plant response rating, Foxtail, Giant",[3]; [10],60
same,"Plant response rating, Crabgrass, Large",[4]; [9],50
same,"Plant response rating, Crabgrass, Large",[4]; [10],70
same,"Plant response rating, Morningglory",[5]; [9],50
same,"Plant response rating, Morningglory",[5]; [10],0
same,"Plant response rating, Pigweed",[6]; [9],60
same,"Plant response rating, Pigweed",[6]; [10],90
same,"Plant response rating, Velvetleaf",[7]; [9],40
same,"Plant response rating, Velvetleaf",[7]; [10],10
same,"Plant response rating, Wheat",[8]; Postemergence,10
same,"Plant response rating, Wheat",[8]; Preemergence,0
"FC(F)(F)c1cnc(Oc2ccccc2-c2cnc(Br)s2)nc1 [Compound 15, 2-[2-(2-bromo-5-thiazolyl)phenoxy]-5-(trifluoromethyl)pyrimidine]",pest or weed control at 31 g/ha,"[1]; Echinochloa crus-galli, post-emergence, 240 h, 31 g ai/ha, Postemergence, 0 to 100 scale, 0 no effect, 100 complete control, read-out: Plant response rating, Barnyardgrass",0%
same,pest or weed control at 125 g/ha,"[1]; Echinochloa crus-galli, post-emergence, 240 h, postemergence, 0 to 100 scale, 0 no effect, 100 complete control, read-out: Plant response rating, Barnyardgrass",0%
same,pest or weed control at 125 g/ha,"[1]; Echinochloa crus-galli, pre-emergence, 240 h, Preemergence, 0 to 100 scale where 0 is no effect and 100 is complete control, read-out: Plant response rating, Barnyardgrass",0%
same,Barnyardgrass plant response rating,[1]; [11],0
same,Corn plant response rating,[2]; [11],0
same,"Corn plant response rating (crop injury, 0 = no effect, 100 = complete kill) at 31 g/ha","[2]; Zea mays, post-emergence, 240 h, 31 g ai/ha, Postemergence, 0 to 100 scale, 0 no effect, 100 complete control",0%
same,"Corn plant response rating (crop injury, 0 = no effect, 100 = complete kill) at 125 g/ha","[2]; Zea mays, post-emergence, 240 h, postemergence, 0 to 100 scale, 0 no effect, 100 complete control",0%
same,"Corn plant response rating (crop injury, 0 = no effect, 100 = complete kill) at 125 g/ha","[2]; Zea mays, pre-emergence, 240 h, Preemergence, 0 to 100 scale where 0 is no effect and 100 is complete control",0%
same,"Foxtail, Giant plant response rating",[3]; [11],0
same,pest or weed control at 31 g/ha,"[3]; Setaria faberi, post-emergence, 240 h, 31 g ai/ha, Postemergence, 0 to 100 scale, 0 no effect, 100 complete control, read-out: Plant response rating, Foxtail, Giant",0%
same,pest or weed control at 125 g/ha,"[3]; Setaria faberi, post-emergence, 240 h, postemergence, 0 to 100 scale, 0 no effect, 100 complete control, read-out: Plant response rating, Foxtail, Giant",0%
same,pest or weed control at 125 g/ha,"[3]; Setaria faberi, pre-emergence, 240 h, Preemergence, 0 to 100 scale where 0 is no effect and 100 is complete control, read-out: Plant response rating, Foxtail, Giant",0%
same,pest or weed control at 31 g/ha,"[4]; Digitaria sanguinalis, post-emergence, 240 h, 31 g ai/ha, Postemergence, 0 to 100 scale, 0 no effect, 100 complete control, read-out: Plant response rating, Crabgrass, Large",0%
same,pest or weed control at 125 g/ha,"[4]; Digitaria sanguinalis, post-emergence, 240 h, postemergence, 0 to 100 scale, 0 no effect, 100 complete control, read-out: Plant response rating, Crabgrass, Large",10%
same,pest or weed control at 125 g/ha,"[4]; Digitaria sanguinalis, pre-emergence, 240 h, Preemergence, 0 to 100 scale where 0 is no effect and 100 is complete control, read-out: Plant response rating, Crabgrass, Large",0%
same,"Crabgrass, Large plant response rating",[4]; [11],0
same,pest or weed control at 31 g/ha,"[5]; Ipomoea, post-emergence, 240 h, 31 g ai/ha, Postemergence, 0 to 100 scale, 0 no effect, 100 complete control, read-out: Plant response rating, Morningglory",0%
same,pest or weed control at 125 g/ha,"[5]; Ipomoea, post-emergence, 240 h, postemergence, 0 to 100 scale, 0 no effect, 100 complete control, read-out: Plant response rating, Morningglory",10%
same,pest or weed control at 125 g/ha,"[5]; Ipomoea, pre-emergence, 240 h, Preemergence, 0 to 100 scale where 0 is no effect and 100 is complete control, read-out: Plant response rating, Morningglory",0%
same,Morningglory plant response rating,[5]; [11],0
same,pest or weed control at 31 g/ha,"[6]; Amaranthus retroflexus, post-emergence, 240 h, 31 g ai/ha, Postemergence, 0 to 100 scale, 0 no effect, 100 complete control, read-out: Plant response rating, Pigweed",60%
same,pest or weed control at 125 g/ha,"[6]; Amaranthus retroflexus, post-emergence, 240 h, postemergence, 0 to 100 scale, 0 no effect, 100 complete control, read-out: Plant response rating, Pigweed",70%
same,pest or weed control at 125 g/ha,"[6]; Amaranthus retroflexus, pre-emergence, 240 h, Preemergence, 0 to 100 scale where 0 is no effect and 100 is complete control, read-out: Plant response rating, Pigweed",0%
same,Pigweed plant response rating,[6]; [11],0
same,pest or weed control at 31 g/ha,"[7]; Abutilon theophrasti, post-emergence, 240 h, 31 g ai/ha, Postemergence, 0 to 100 scale, 0 no effect, 100 complete control, read-out: Plant response rating, Velvetleaf",0%
same,pest or weed control at 125 g/ha,"[7]; Abutilon theophrasti, post-emergence, 240 h, postemergence, 0 to 100 scale, 0 no effect, 100 complete control, read-out: Plant response rating, Velvetleaf",0%
same,pest or weed control at 125 g/ha,"[7]; Abutilon theophrasti, pre-emergence, 240 h, Preemergence, 0 to 100 scale where 0 is no effect and 100 is complete control, read-out: Plant response rating, Velvetleaf",0%
same,Velvetleaf plant response rating,[7]; [11],0
same,plant injury at 31 g/ha,"[8]; Triticum aestivum, post-emergence, 240 h, 31 g ai/ha, Postemergence, 0 to 100 scale, 0 no effect, 100 complete control, read-out: Plant response rating, Wheat",0%
same,plant injury at 125 g/ha,"[8]; Triticum aestivum, post-emergence, 240 h, postemergence, 0 to 100 scale, 0 no effect, 100 complete control, read-out: Plant response rating, Wheat",0%
same,plant injury at 125 g/ha,"[8]; Triticum aestivum, pre-emergence, 240 h, Preemergence, 0 to 100 scale where 0 is no effect and 100 is complete control, read-out: Plant response rating, Wheat",0%
